These are literature values, as cited in patent US20130172299A1, “Combination Therapy for Treatment of Bone and Mineral Disorders for Patients with Impaired Renal Function” (priority 2008, published 2013).

SMILES strings stand for the structures.

The conditions of series [1]: hemodialysis patients.

Take `Cc1c(O)cc2c(c1C)O[C@](C)(CCC[C@H](C)CCC[C@H](C)CCCC(C)C)CC2` [Gamma tocopherol]: the “inflammation in ESRD” value (300 mg po qd for 14 days) was “efficacy in reducing inflammation”. Further, under “300 mg po qd, 15 patients treated for 14 days”, the serious adverse events entry is “no serious adverse events were reported”.

Regarding `NC(=O)c1cccnc1` [nicotinamide], in series [1], the LDL cholesterol result was “decreased”, the “serum HDL cholesterol” value is reported as “increased”, the serum calcium levels result is “did not change” and the serum phosphorous levels result is on record as “significantly reduced”.
